{"source": "the supplement of paper PMC10307832", "experiment_in_all_cases": "relative viability (nuclei count vs DMSO), 5 days (fraction); higher = more cells survive", "key": {"[1]": {"compound": "CN[C@@H]1C[C@H]2O[C@@](C)([C@@H]1OC)n1c3ccccc3c3c4c(c5c6ccccc6n2c5c31)C(=O)NC4 [Staurosporine] + CCNC(=O)c1noc(-c2cc(C(C)C)c(O)cc2O)c1-c1ccc(CN2CCOCC2)cc1 [Luminespib] (partner 0.01 µM)", "method_in_brief": "(§1)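 One day after seeding in 1536-well plates, lung cancer cell lines were dosed by pin tool. Dosing was either single-drug or a fixed anchor-drug dose plus five library-drug doses (not always all listed) in √10 steps. After 5 days, nuclei were stained in one fix-and-stain step and counted on 4× images, and relative viability is the nuclei count of treated wells over that of vehicle wells, given as the median of duplicate plates.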"}, "[2]": {"compound": "CN[C@@H]1C[C@H]2O[C@@](C)([C@@H]1OC)n1c3ccccc3c3c4c(c5c6ccccc6n2c5c31)C(=O)NC4 [Staurosporine] + Nc1ncn([C@H]2C[C@H](O)[C@@H](CO)O2)c(=O)n1 [Decitabine] (partner 2 µM)", "method_in_brief": "as §1"}, "[3]": {"compound": "O=c1[nH]cc(F)c(=O)[nH]1 [5-Fluorouracil] + CS(=O)(=O)N1CCN(Cc2cc3nc(-c4cccc5[nH]ncc45)nc(N4CCOCC4)c3s2)CC1 [Pictilisib] (partner 1 µM)", "method_in_brief": "as §1"}, "[4]": {"compound": "O=c1[nH]cc(F)c(=O)[nH]1 [5-Fluorouracil] + O=C(CCCCCCC(=O)Nc1ccccc1)NO [Vorinostat] (partner 1 µM)", "method_in_brief": "as §1"}}, "data": [{"cell line": "UMC-11", "values": [{"measurement": "relative viability", "setting": "[1]; first compound 0.005 µM", "result": 0.894}, {"measurement": "relative viability", "setting": "[1]; first compound 0.01581 µM", "result": 0.487}, {"measurement": "relative viability", "setting": "[1]; first compound 0.05 µM", "result": 0.223}, {"measurement": "relative viability", "setting": "[1]; first compound 0.1581 µM", "result": 0.135}, {"measurement": "relative viability", "setting": "[1]; first compound 0.5 µM", "result": 0.0992}, {"measurement": "relative viability", "setting": "[2]; first compound 0.005 µM", "result": 0.76}, {"measurement": "relative viability", "setting": "[2]; first compound 0.05 µM", "result": 0.192}, {"measurement": "relative viability", "setting": "[2]; first compound 0.1581 µM", "result": 0.153}, {"measurement": "relative viability", "setting": "[2]; first compound 0.5 µM", "result": 0.371}, {"measurement": "relative viability", "setting": "[3]; first compound 0.02 µM", "result": 0.834}, {"measurement": "relative viability", "setting": "[3]; first compound 0.2 µM", "result": 0.601}, {"measurement": "relative viability", "setting": "[3]; first compound 0.6325 µM", "result": 0.397}, {"measurement": "relative viability", "setting": "[3]; first compound 2 µM", "result": 0.36}, {"measurement": "relative viability", "setting": "[4]; first compound 0.02 µM", "result": 0.374}, {"measurement": "relative viability", "setting": "[4]; first compound 0.2 µM", "result": 0.325}, {"measurement": "relative viability", "setting": "[4]; first compound 0.6325 µM", "result": 0.244}]}]}
